Key:
Serum cholinesterase [1] = target: T1, Serum cholinesterase (Rattus norvegicus, UniProt Q9JKC1); assay: Serum cholinesterase activity; format: in vivo; conditions: for depression of acetyl cholinesterase activity: 3 days
T1 construct: from tissue; host or cells: rat serum
Method: (§1) Adult male rats (weighing 200-230 g) were divided into four groups of six animals each. Group 1 received an equivalent amount of saline and served as control. Animals from group 2, 3, and 4 were given methomyl 1, 2, and 4 mg/kg body weight i.p. respectively, between 8: 00 a.m. and 9:00 a.m., for three consecutive days. In the second set of experiments, adult male rats were divided into four groups. Animals from group 2, 3, and 4 were injected with 4 mg/kg body weight methomyl for one, three, and five successive days. The volume injected into the rats of body weight 200 g was 1 ml. […]
Alanine aminotransferase and aspartate aminotransferase activity was measured using the Reitman and Frankel[12] method. Alkaline phosphatase activity was measured using Span diagnostic kits.[13] Cholinesterase activity was measured using the kinetic test method of Knedel et al.[14]

Hemoglobin = Hemoglobin content; format: in vivo, rat; conditions: for decrease in hemoglobin content: 3 days
Method: as §1, with “Group” for “Adult male rats (weighing 200-230 g) were divided into four groups of six animals each. Group”, “In the second set of experiments, adult male rats were divided into four groups.” left out
Hemoglobin was measured using HLS-hemosafe reagent. The color obtained was measured colorimetrically at 530 nm.

cytochrome P450 = assay: Hepatic microsomal cytochrome P450 level; format: in vivo, rat; conditions: for decrease in cytochrome P450 content: 3 days
Method: (§2) Adult male rats (weighing 200-230 g) were divided into four groups of six animals each. Group 1 received an equivalent amount of saline and served as control. Animals from group 2, 3, and 4 were given methomyl 1, 2, and 4 mg/kg body weight i.p. respectively, between 8: 00 a.m. and 9:00 a.m., for three consecutive days. In the second set of experiments, adult male rats were divided into four groups. Animals from group 2, 3, and 4 were injected with 4 mg/kg body weight methomyl for one, three, and five successive days. The volume injected into the rats of body weight 200 g was 1 ml. In another experiment, adult female rats and old male rats (weighing 350-450 g, 8 months old) were divided into two groups of six animals each. Group 2 of each category received methomyl (4 mg/kg body weight, i.p., for three successive days), and group 1 of each category received an equivalent amount of saline and served as the control group.
(§3) The rats were sacrificed by cervical dislocation, 24 hours after the last dose. Their livers were perfused in situ with ice cold 1.15% KCl containing 0.05 mM EDTA, rapidly excised, blotted dry, weighed, minced and homogenized with two volumes of ice cold 0.25 M sucrose solution, in a Potter-Elvehjem type homogenizer. The homogenate was centrifuged at 10,000 × g for 10 min, in a refrigerated centrifuge (REMI C-24). The microsomes were isolated by the procedure described by of Cinti et al.[4] The microsomal pellet was suspended in phosphate buffer (0.1 M, pH 7.4) and the suspension was used for the microsomal enzyme assays. Microsomal protein content was measured by the Biuret method, using bovine serum albumin as the standard.[5]
(§4) The microsomal electron transport components (cytochrome P450 and cytochrome b5) were determined using Hitachi UV-Visible double beam recording spectrophotometer, by the procedure of Omura and Sato.[67] Cytochrome c reductase activity was determined using the method recommended by Masters et al.[8] Aminopyrine N-demethylase activity was assayed according to the procedure described by Schenkman et al.[9] Formaldehyde liberated during N-demethylation was estimated by the procedure described by Nash.[10] Aniline hydroxylase assay was performed using the procedure reported by Govindwar and Dalvi.[11]

Serum cholinesterase [2] = target: T1, Serum cholinesterase; assay: Serum cholinesterase activity; format: in vivo; conditions: female rats; for Serum cholinesterase: for 3 days; for depression of acetyl cholinesterase activity: 3 days
[3] = test system: alanine aminotransferase (SGPT); assay: Serum alanine aminotransferase (SGPT) activity; format: in vivo, rat; conditions: female rats; for SGPT: for 3 days
Aniline hydroxylase = assay: Hepatic microsomal aniline hydroxylase activity; format: in vivo, rat; conditions: for decrease in the activity of aniline hydroxylase / decrease in activity of aniline hydroxylase: vs control
Method: as §2, §3, §4

[4] = test system: Aminopyrine N-demethylase; assay: Hepatic microsomal aminopyrine N-demethylase activity; format: in vivo, rat
Method: as §2, §3, §4

[5] = female rats, 4 mg/kg body weight i.p., for 3 days
[6] = male rats, 1 mg/kg body weight i.p., for three days
[7] = male rats, 2 mg/kg body weight i.p., for three days
[8] = male rats, 4 mg/kg body weight i.p., for three days
[9] = adult female rats, 4 mg/kg body weight, i.p., three days
[10] = adult male rats, 1 mg/kg i.p., for 3 days
[11] = adult male rats, 2 mg/kg i.p., for 3 days
[12] = adult male rats, 4 mg/kg i.p., five days, vs control
[13] = adult male rats, 4 mg/kg i.p., for 3 days
[14] = adult male rats, 4 mg/kg i.p., one day, vs control
[15] = adult male rats, 4 mg/kg i.p., three days, vs control
[16] = adult rats, 4 mg/kg i.p., 1 day of treatment
[17] = adult rats, 4 mg/kg i.p., 3 days of treatment
[18] = adult rats, 4 mg/kg i.p., 5 days of treatment
[19] = old male rat, 4 mg/kg i.p., three days, vs control
[20] = old male rats, 4 mg/kg body weight, i.p., three days

T1 sequence (Q9JKC1 24-597): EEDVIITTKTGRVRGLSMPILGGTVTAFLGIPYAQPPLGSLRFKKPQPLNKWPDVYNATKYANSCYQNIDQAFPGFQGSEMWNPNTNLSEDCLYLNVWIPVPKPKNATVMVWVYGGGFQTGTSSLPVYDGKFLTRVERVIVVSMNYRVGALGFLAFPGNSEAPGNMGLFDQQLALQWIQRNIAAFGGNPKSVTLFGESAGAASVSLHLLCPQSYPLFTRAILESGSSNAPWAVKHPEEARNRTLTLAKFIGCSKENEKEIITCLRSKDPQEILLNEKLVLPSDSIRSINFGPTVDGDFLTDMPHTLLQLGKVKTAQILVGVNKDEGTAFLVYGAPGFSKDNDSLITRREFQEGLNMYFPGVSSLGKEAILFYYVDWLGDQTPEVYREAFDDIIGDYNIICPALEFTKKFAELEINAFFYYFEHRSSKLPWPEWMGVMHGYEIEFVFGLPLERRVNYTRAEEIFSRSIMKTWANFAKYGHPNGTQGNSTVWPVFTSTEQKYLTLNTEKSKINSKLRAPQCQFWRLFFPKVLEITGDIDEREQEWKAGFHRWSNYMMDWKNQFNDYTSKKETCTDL

SMILES: CNC(=O)ON=C(C)SC [methomyl, S-methyl-N-(methyl carbomyl)-thioacetimidate]
- Serum cholinesterase (Serum cholinesterase [1]; [5]): 844 u/l
- depression of acetyl cholinesterase activity (Serum cholinesterase [1]; female rats, 4 mg/kg i.p.): 66%
- Serum cholinesterase (Serum cholinesterase [1]; [6]): 1120 u/l
- depression of acetyl cholinesterase activity (Serum cholinesterase [1]; male rats, 1 mg/kg i.p.): 15%
- Serum cholinesterase (Serum cholinesterase [1]; [7]): 949 u/l
- depression of acetyl cholinesterase activity (Serum cholinesterase [1]; male rats, 2 mg/kg i.p.): 28%
- Serum cholinesterase (Serum cholinesterase [1]; [8]): 848 u/l
- depression of acetyl cholinesterase activity (Serum cholinesterase [1]; male rats, 4 mg/kg i.p.): 35%
- decrease in hemoglobin content (Hemoglobin; female rat, 1 mg/kg i.p.): 21%
- decrease in hemoglobin content (Hemoglobin; female rat, 2 mg/kg i.p.): 21%
- decrease in hemoglobin content (Hemoglobin; female rat, 4 mg/kg i.p.): 29%
- Hemoglobin (Hemoglobin; female rats, 1 mg/kg body weight i.p., for 3 days): 10.06 g/dL
- Hemoglobin (Hemoglobin; female rats, 2 mg/kg body weight i.p., for 3 days): 10.00 g/dL
- Hemoglobin (Hemoglobin; [5]): 9.06 g/dL
- decrease in hemoglobin content (Hemoglobin; male rat, 1 mg/kg i.p.): 16%
- decrease in hemoglobin content (Hemoglobin; male rat, 2 mg/kg i.p.): 25%
- decrease in hemoglobin content (Hemoglobin; male rat, 4 mg/kg i.p.): 29%
- Hemoglobin (Hemoglobin; [6]): 9.60 g/dL
- Hemoglobin (Hemoglobin; [7]): 8.60 g/dL
- Hemoglobin (Hemoglobin; [8]): 8.10 g/dL
- Cytochrome P450 (cytochrome P450; [9]): 0.21 nmole/mg protein
- decrease in cytochrome P450 content (cytochrome P450; adult male rats, 1 mg/kg i.p., vs control): 34%
- Cytochrome P450 (cytochrome P450; [10]): 0.27 nmole/mg protein
- decrease in cytochrome P450 content (cytochrome P450; adult male rats, 2 mg/kg i.p., vs control): 34%
- Cytochrome P450 (cytochrome P450; [11]): 0.27 nmole/mg protein
- decrease in cytochrome P450 content (cytochrome P450; adult male rats, 4 mg/kg i.p., vs control): 19%
- decrease in the level of cytochrome P450 (cytochrome P450; [12]): 37%
- Cytochrome P450 (cytochrome P450; [13]): 0.33 nmole/mg protein
- decrease in the level of cytochrome P450 (cytochrome P450; [14]): 37%
- decrease in the level of cytochrome P450 (cytochrome P450; [15]): 42%
- Cytochrome P450 (cytochrome P450; [16]): 0.30 nmole/mg protein
- Cytochrome P450 (cytochrome P450; [17]): 0.28 nmole/mg protein
- Cytochrome P450 (cytochrome P450; [18]): 0.30 nmole/mg protein
- decrease in cytochrome P450 (cytochrome P450; [19]): 43%
- Cytochrome P450 (cytochrome P450; [20]): 0.20 nmole/mg protein
- Serum cholinesterase (Serum cholinesterase [2]; 1 mg/kg body weight i.p.): 1343 u/l
- depression of acetyl cholinesterase activity (Serum cholinesterase [2]; 1 mg/kg i.p.): 46%
- Serum cholinesterase (Serum cholinesterase [2]; 2 mg/kg body weight i.p.): 1193 u/l
- depression of acetyl cholinesterase activity (Serum cholinesterase [2]; 2 mg/kg i.p.): 52%
- SGPT ([3]; 1 mg/kg body weight i.p.): 43.0 u/l
- SGPT ([3]; 2 mg/kg body weight i.p.): 46.0 u/l
- Increased activity of alanine aminotransferase ([3]; 2 mg/kg i.p., 3 days): 14%
- decrease in the activity of aniline hydroxylase (Aniline hydroxylase; adult female rat, 4 mg/kg i.p., three days): 43%
- Aniline hydroxylase (Aniline hydroxylase; [9]): 0.45 nmole of p-aminophenol formed/min/mg/microsomal protein
- Aniline hydroxylase (Aniline hydroxylase; [10]): 1.35 nmole of p-aminophenol formed/min/mg microsomalprotein
- Aniline hydroxylase (Aniline hydroxylase; [11]): 1.17 nmole of p-aminophenol formed/min/mg microsomalprotein
- decrease in the activity of aniline hydroxylase (Aniline hydroxylase; adult male rats, 4 mg/kg i.p., 3 days): 27%
- decrease in activity of aniline hydroxylase (Aniline hydroxylase; adult male rats, 4 mg/kg i.p., five days): 17%
- Aniline hydroxylase (Aniline hydroxylase; [13]): 0.80 nmole of p-aminophenol formed/min/mg microsomalprotein
- decrease in activity of aniline hydroxylase (Aniline hydroxylase; adult male rats, 4 mg/kg i.p., one day): 47%
- decrease in activity of aniline hydroxylase (Aniline hydroxylase; adult male rats, 4 mg/kg i.p., three days): 71%
- Aniline hydroxylase (Aniline hydroxylase; [16]): 0.60 nmole of p-aminophenol formed/min/mg/microsomal protein
- Aniline hydroxylase (Aniline hydroxylase; [17]): 0.33 nmole of p-aminophenol formed/min/mg/microsomal protein
- Aniline hydroxylase (Aniline hydroxylase; [18]): 0.93 nmole of p-aminophenol formed/min/mg/microsomal protein
- Aniline hydroxylase (Aniline hydroxylase; [20]): 1.80 nmole of p-aminophenol formed/min/mg/microsomal protein
- decrease in the activity of aminopyrine N-demethylase ([4]; adult female rat, 4 mg/kg i.p., three days, vs control): 26%
- Aminopyrine N-demethylase [4, 9]: 3.30 nmole of formaldehyde liberated/min/mg microsomal protein
- Aminopyrine N-demethylase [4, 10]: 3.2 nmole of formaldehyde liberated/min/mg microsomal protein
- decrease in the activity of aminopyrine N-demethylase ([4]; adult male rats, 2 mg/kg i.p., 3 days, vs control): 50%
- Aminopyrine N-demethylase [4, 11]: 1.9 nmole of formaldehyde liberated/min/mg microsomal protein
- decrease in the activity of aminopyrine N-demethylase ([4]; adult male rats, 4 mg/kg i.p., 3 days, vs control): 40%
- decrease in activity of aminopyrine N-demethylase [4, 12]: 31%
- Aminopyrine N-demethylase [4, 13]: 2.3 nmole of formaldehyde liberated/min/mg microsomal protein
- decrease in activity of aminopyrine N-demethylase [4, 14]: 31%
- decrease in activity of aminopyrine N-demethylase [4, 15]: 51%
- Aminopyrine N-demethylase [4, 16]: 3.11 nmole of formaldehyde liberated/min/mg microsomal protein
- Aminopyrine N-demethylase [4, 17]: 2.20 nmole of formaldehyde liberated/min/mg microsomal protein
- Aminopyrine N-demethylase [4, 18]: 3.09 nmole of formaldehyde liberated/min/mg microsomal protein
- decrease in aminopyrine N-demethylase [4, 19]: 50%
- Aminopyrine N-demethylase [4, 20]: 2.26 nmole of formaldehyde liberated/min/mg microsomal protein
